d = 2'-deoxy (DNA); m = 2'-O-methyl
Legend:
[1] = In vivo bioavailability after a single dose, rats; settings: intravenous and oral
[2] = tested on: low passage, clinical strains of HIV-1; test: Anti-HIV activity in fresh human peripheral blood mononuclear cells; type: cell-based; settings: fresh human PBMC; varies from strain to strain
Method: In another experiment, the anti-HIV activity of Oligos 12, 32, and 41 was evaluated against a variety of low passage, clinical strains of HIV-1 in fresh human peripheral blood mononuclear cells. These strains include viruses obtained from pediatric patients attending the Children's Hospital University of Alabama at Birmingham as well as viruses representative of the various HIV-1 clades found throughout the world, shown below in TABLE 4.
Fresh human peripheral blood lymphocytes (PBL) were isolated from voluntary Red Cross donors, seronegative for HIV and HBV. Leukophoresed blood was diluted 1:1 with Dulbecco's phosphate buffered saline (PBS), layered over 14 ml of Ficoll-Hypaque density gradient in a 50 ml centrifuge tube. Tubes were then centrifuged for 30 minutes at 600×g. Banded PBLs were gently aspirated from the resulting interface and subsequently washed 2× with PBS by low speed centrifugation. After final wash, cells were enumerated by trypan blue exclusion and re-suspended at 1×10^7/ml in RPMI 1640 with 15% Fetal Bovine Serum (FBS), 2 mM L-glutamine, […] PHA-P and allowed to incubate for 48–72 hours at 37° C. After incubation, PBLs were centrifuged and reset in RPMI 1640 with 15% FBS, 2 mM L-glutamine, 100 U/ml penicillin, 100 μg/ml streptomycin, 10 μg/ml gentamycin, and 20 U/ml recombinant human IL-2. PBLs were maintained in this medium at a concentration of 1–2×10^6/ml with bi-weekly medium changes, until use in assay protocol. […]
In the standard PBL assay (MOI: 0.2), the assay was ended on day 7 following collection of cell free supernatant samples for reverse transcriptase activity assay. In the low MOI PBL assay (MOI: 0.02), supernatant samples were collected on day 6, day 11, and day 14 post-infection and analyzed for RT activity. […] Opti-Fluor O was added to each sample and incorporated radioactivity was quantified utilizing a liquid scintillation counter, (Wallac 1450 Microbetaplus, Gaithersburg, Md.).

HIV-1 (IIIB, RF and SK1) = test: XTT-based anti-HIV assay, laboratory strains of HIV-1; type: cell-based
From the text: (§1) The initial experiment performed involved evaluation of Oligos 12, 32, and 41 against three laboratory strains of HIV-1 (IIIB, RF and SK1) and one strain of HIV-2 (ROD) in parallel with the positive control compound ddC in the XTT-based anti-HIV assay. All these oligonucleotides are active against both HIV-1 and HIV-2.
CEM-SS sells (AIDS Research and Reference Reagent Program, NIH) or other established human T cell lines used in these experiments were passaged in T-150 flasks for use in the assay. On the day preceding the assay, the cells were split 1:2 to assure they would be in an exponential growth phase at time of infection. On the day of assay the cells were washed twice with tissue culture medium and resuspended in fresh tissue cultures medium. Total cell and viability counting was performed using a hemacytometer and trypan blue dye exclusion. Cell viability was greater than 95% for the cells to be utilized in the assay. The cells were pelleted and resuspended at 2.5×10^4 cells per ml in tissue culture medium. […]
A pretitered aliquot of virus was removed from the freezer −80° C.) and allowed to thaw slowly to room temperature in a biological safety cabinet. The virus was resuspended and diluted into tissue culture medium such that the amount of virus added to each well in a volume of 50 μl will be the amount determined to give complete cell killing at 6 days post-infection. […]
After 6 days of incubation at 37° C. in a 5% CO2 incubator, the test plates were analyzed by staining with the tetrazolium dye XTT. XTT-tetrazolium is metabolized by the mitochondrial enzymes of metabolically active cells to a soluble formazan product, allowing the rapid quantitative analysis of the inhibition of HIV-induced cell killing by anti-HIV test substances. […]
XTT solution was prepared daily as a stock of 1 mg/ml in PBS. […] Adhesive plate sealers were used in place of the lids, the sealed plate was inverted several times to mix the soluble formazan product and the plate was read spectrophotometrically at A450 nm with a Molecular Devices Vmax plate reader.

[3] = In vivo bioavailability after a single dose, monkeys; settings: intravenous and oral
HIV-2 (ROD) = test: XTT-based anti-HIV assay, HIV-2; type: cell-based
From the text: as §1
CEM-SS sells (AIDS Research and Reference Reagent Program, NIH) or other established human T cell lines used in these experiments were passaged in T-150 flasks for use in the assay. On the day preceding the assay, the cells were split 1:2 to assure they would be in an exponential growth phase at time of infection. On the day of assay the cells were washed twice with tissue culture medium and resuspended in fresh tissue cultures medium. Total cell and viability counting was performed using a hemacytometer and trypan blue dye exclusion. Cell viability was greater than 95% for the cells to be utilized in the assay. The cells were pelleted and resuspended at 2.5×10^4 cells per ml in tissue culture medium. Cells were added to the drug-containing plates in a volume of 50 μl.
A pretitered aliquot of virus was removed from the freezer −80° C.) and allowed to thaw slowly to room temperature in a biological safety cabinet. The virus was resuspended and diluted into tissue culture medium such that the amount of virus added to each well in a volume of 50 μl will be the amount determined to give complete cell killing at 6 days post-infection. In general the virus pools produced with the IIIB isolate of HIV required the addition of 5 μl of virus per well.
Each plate contained cell control wells (cells only), virus control wells (cells plus virus), drug toxicity control wells (cells plus drug only), drug colorimetric control wells (drug only) as well as experimental wells (drug plus cells plus virus).
After 6 days of incubation at 37° C. in a 5% CO2 incubator, the test plates were analyzed by staining with the tetrazolium dye XTT. XTT-tetrazolium is metabolized by the mitochondrial enzymes of metabolically active cells to a soluble formazan product, allowing the rapid quantitative analysis of the inhibition of HIV-induced cell killing by anti-HIV test substances. On day 6 post-infection plates were removed from the incubator and observed. The use of round bottom microtiter plates allows rapid macroscopic analysis of the activity of a given test compound by the evaluation of pellet size. The results of the macroscopic observations were confirmed and enhanced by further microscopic analysis.
XTT solution was prepared daily as a stock of 1 mg/ml in PBS. Phenazine methosulfate (PMS) solution was prepared at 15 mg/ml in PBS and stored in the dark at −20° C. XTT/PMS stock was prepared immediately before use by diluting the PMS 1:100 into PBS and adding 40 μl per ml of XTT solution. Fifty microliters of XTT/PMS was added to each well of the plate and the plate was incubated for an additional 4 hours at 37° C. Adhesive plate sealers were used in place of the lids, the sealed plate was inverted several times to mix the soluble formazan product and the plate was read spectrophotometrically at A450 nm with a Molecular Devices Vmax plate reader.

[4] = tested on: monocyte-macrophage-tropic strains BaL and ADA; test: Anti-HIV assay in fresh human monocyte-macrophages; type: cell-based, HIV-1
Method: In addition to these T-tropic strains, the activity of the compounds was also evaluated against the monocyte-macrophage strains BaL and ADA. Oligos 12 and 32 according to the invention, as well as Oligo 41 are active against low passage clinical T-tropic strains of HIV-1. The activity of the compounds varies from strain to strain. The compounds were not active against the monocyte-macrophage-tropic strains BaL and ADA.
For isolation of adherent cells, 3×10^6 non-PHA stimulated peripheral blood cells were resuspended in Hanks buffered saline (with calcium and magnesium) supplemented with 10% human AB serum. The cells were placed in a 24-well microtiter plate at 37° C. for 2 hours. Non-adherent cells were removed by vigorously washing six times. The adherent cells were cultured for 7 days in RPMI 1640 tissue culture medium with 15% fetal bovine serum. The cultures were carefully monitored for confluency during this incubation period. Infection of the cells was performed with the monocytotropic HIV-1 strains BaL or ADA and the matched pair of AZT-sensitive and AZT-resistant virus isolates. Each of these virus isolates was obtained from the NIAID AIDS Research and Reference Reagent Program. High titer pools of each of these viruses have been harvested from infected cultures of peripheral blood adherent cells and frozen in 1.0 ml aliquots at −80° C. Monocyte-macrophage monolayers were infected at an MOI of 0.1. Compounds to be evaluated in the monocyte-macrophage assay are added to the monolayers shortly before infection in order to maximize the potential for identifying active compounds.
At 2 days post-infection, the medium was decanted and the cultures washed twice with complete medium in order to remove excess virus. […] Control curves are generated in each assay to accurately quantify the amount of capsid protein in each sample. Data was obtained by spectrophotometric analysis at 450 nm using a plate reader (Molecular Devices Vmax). P24 concentrations were calculated from the optical density values by use of the Molecular Device software package Soft Max.

HIV-1 IIB = test: CPE-based inhibition of acute infection of MT-4 cells (MTT); type: cell-based
Method: CPE based infection experiments were performed using MT-4 cells (Pauwels et al. (1988) J. Virol. Meth. 20:309; Papp et al. (1997) AIDS Research and Human Retroviruses In Press). MT-4 cells were obtained from the AIDS Research and Reference Reagent Bank, Division of AIDS, NIAID, NIH contributed Dr. Richman (Pauwels et al. (1988) J. Virol. Meth. 20:309) T-lymphoid H9 (HUT-78) cells were obtained from Dr. Robert Gallo, National Cancer Institute, Bethesda, Md. (Popovic et al. (1984) Science 224:497; Gazdar et al. (1980) Blood 55:409). Cell cultures were maintained in RPMI 1640 medium (GIBCO Laboratories, Grand Island, N.Y.) supplemented with 20% (H9 cells), or 10% (MT-4 cells) heat-inactivated fetal bovine serum (Sigma Chemical Co., St. Louis, Mo.) 250 units/ml penicillin, 250 μg/ml streptomycin, 2 mM 1-glutamine, and 10 mM HEPES (N-2-hydroxyethylpiperazine-N′-2-ethanesulfonic acid) buffer (complete medium) at 37° C. in 5% CO2. HIV-1 IIB was originally obtained from Dr. Robert Gallo, National Cancer Institute (Popovic (1984) Science 224:497). Virus stocks of HIV-1 were prepared from cell-free filtered supernatant of chronically infected H9 cultures by the shaking method as previously described by Vujoie et al. (J. Infectious Diseases (1988) 157:1047).
Experiments were performed under two sets of conditions. […] The cultures were incubated for 6 days and CPE measured using the MTT dye method. […]

Row | Substance | bioavailability [1] | activity against low passage clinical T-tropic strains of HIV-1 [2] | activity against HIV-1 (HIV-1 (IIIB, RF and SK1)) | bioavailability [3] | level of activity against the HIV-2 strain ROD (HIV-2 (ROD); compared with the HIV-1 strains, XTT assay) | activity against HIV-2 (HIV-2 (ROD); strain ROD, XTT assay) | activity against monocyte-macrophage-tropic strains BaL and ADA [4] | inhibition of HIV-2-induced cell killing (HIV-2 (ROD); XTT assay (FIG. 3)) | inhibition of HIV-1 infection (HIV-1 IIB; MT-4 cells treated during initial infection (FIG. 1)) | inhibition of HIV-1 infection (HIV-1 IIB; MT-4 cells treated following initial infection, post-viral adsorption (FIG. 2))
1 | UCGCACCCATCTCTCTCCUUC (chemistry not given here) [Oligo 12] | intravenously and orally bioavailable | active | active | intravenously and orally bioavailable | enhanced level of activity | active | not active | – | – | –
2 | 4×4: 21mer phosphorothioate linked oligonucleotide, deoxyribonucleotides flanked on each side by four 2′-O-methyl ribonucleotides; SEQ ID NO:1 (UCGCACCCATCTCTCTCCUUC; sugars from the 5' end m4 d13 m4, all phosphorothioate, methylation of C not given here) | – | – | – | – | – | – | – | inhibit HIV-2-induced cell killing | inhibition of HIV-1 infection | inhibition of HIV-1 infection
